Data published in US7098245B2, “Polynucleotide cleavage agent switched on by photo irradiation” (Tottori University, priority 2002, dated 2006).

Assays:
DNA = conditions: background, symposium report 2001; cited from earlier work
supercoiled φX174 DNA = experiment: DNA cleavage test using (R,R)- and (S,S)-11 (Xe lamp, 45 min); assay type: biochemical
Procedure: The reaction was carried out in a solvent of 20 mM sodium phosphate of pH 7.0 and 20% DMSO. Samples were irradiated for 45 min at a distance of 6 cm using Xe lamp using polystylene filter. Electrophoresis (0.8% agarose gel, TAE buffer, 100 V, 40 min). Gel was stained by EtBr and visualized by UV-B lamp (transillumnator).

[1] = Stability of the compound (sunlight in solution; after deprotection); assay type: physicochemical
Procedure: Part G. A solution of ester 5 (14.6 mg, 0.0307 mmol) in methanol (0.3 mL) was stirred at rt in the presence of Pd/C (3.0 mg, 20 wt %) under H2 (1 atm) for 15 h in the dark. The crude products were filtered through a sintered glass filter with a Celite pad, and the filtrate was dried under vacuo to afford the title compound (S,S)—NH2-mono(9.2 mg, 0.027 mmol) in 88% yield. This compound was unstable when dissolved in methanol or CHCl3 under the irradiation of sunlight; therefore, it should be kept under an argon atmosphere in a dark place.
The reaction was carried out in a flask that was covered by aluminum foil to keep out light. A solution of (R,R)-10 (18 mg, 0.038 mmol) in methanol (1.0 mL) was stirred at rt in the presence of Pd/C (5.4 mg, 30 wt %) under H2 (1 atom) for 5 days and filtered though a glass sintered glass filter with a Celite pad. The filtrate was evaporated under reduced pressure to give (R,R)—NH2-mono (9.9 mg, […]). This compound was unstable when dissolved in methanol or CHCl3 under the irradiation of sunlight; therefore, it should be kept under an argon atmosphere in a dark place.

supercoiled φX-174 DNA = experiment: DNA cleavage test under photo-irradiation (Xe lamp with polystylene filter, 2 hrs); assay type: biochemical
Procedure: (§1) DNA cleavage test using (S,S)—NH2-mono under photo-irradiation φX174 RFI DNA (New England BioLabs, N3021S, 150 ┌M) (1 ┌L) was dissolved in a 10 mM sodium phosphate buffer pH 7.0 (9 ┌L) in a micro tube.
(§2) Ethyl 9-anthracene carboxylate (anth-OEt) was used as a control compound. Three samples were prepared: a buffer solution of DNA, a mixture of anth-OEt with a buffer solution of DNA, and a mixture of (S,S)—NH2-mono with a buffer solution of DNA. These samples were placed under a UV-A lamp (max=365 nm, trans illuminator) at a distance of 4 cm, and irradiated for 3 h. The resulting mixture was subjected to an electrophoresis experiment ([…], TAE buffer, 100 V, 30 min). The resulting agarose gel was stained with ethidium bromide (EtBr), visualized by UV-B lamp and the DNA cleavage ratio was determined by NIH Image 1.62.
The test was carried out using (R,R)— and (S,S)—NH2-mono in the same manner as described in Example 2 except that the test samples were placed under a Xe lamp with a polystylene filter at a distance of 3 cm and irradiated for 2 hrs.

φX174 RFI DNA = experiment: DNA cleavage test under photo-irradiation (UV-A lamp 365 nm, 3 h), agarose gel electrophoresis; assay type: biochemical; conditions: 4 cm, 10 mM sodium phosphate pH 7.0, samples 1, 5, 12 mM, 1 ┌L
Procedure: as §1, §2
The increased ratio of nicked DNA means that DNA was cleaved by the experimental conditions.

[2] = Xe lamp, polystylene filter, 3 cm, 2 hrs

SMILES | stability after deprotection of the amino protecting group [1] | stability when dissolved in methanol or CHCl3 under irradiation of sunlight [1] | concentration required to convert supercoiled DNA to the nicked type DNA (supercoiled φX-174 DNA; [2]) | DNA cleavage activity (φX174 RFI DNA) | other results
O=C(OCC1C(COC(=O)c2c3ccccc3cc3ccccc23)C1(F)F)c1c2ccccc2cc2ccccc12 (stereo not drawn) [9-anthracene carboxylic diester of 1,3-bishydroxymethyl-2,2-difluoro-cyclopropane] |  |  |  |  | DNA cleavage activity (DNA): no significant DNA cleavage activity
O=C(NC[C@H]1[C@H](CO)C1(F)F)c1c2ccccc2cc2ccccc12 [(R,R)-11, (R,R)-2,2-difluoro-3-hydroxymethyl-cyclopropylmethyl anthracene-9-carboxamide] |  |  |  |  | equivalent versus the DNA base pair at that concentration (supercoiled φX174 DNA; 20 mM sodium phosphate pH 7.0, 20% DMSO): 1.3 equivalent; concentration at which supercoiled DNA was converted to the nicked form (supercoiled φX174 DNA; 20 mM sodium phosphate pH 7.0, 20% DMSO, 6 cm): 100 µM; DNA cleavage activity (qualitative) (supercoiled φX174 DNA; FIG. 5): strong DNA cleavage activity
NC[C@H]1[C@H](COC(=O)c2c3ccccc3cc3ccccc23)C1(F)F [(R,R)—NH2-mono, (R,R)-3-aminomethyl-2,2-difluoro-cyclopropylmethyl anthracene-9-carboxylate] | unstable | unstable | 85.5 µM |  | DNA cleavage strength relative to the (S,S)-isomer (supercoiled φX-174 DNA; Xe lamp, 2 hrs): more than 10 times; equivalent versus supercoiled φX-174 DNA at the required concentration (supercoiled φX-174 DNA; [2]): 0.667 equivalent; activity relative to the corresponding (S,S)-isomer (description) (supercoiled φX-174 DNA; stated in detailed description): five times stronger activity
NC[C@@H]1[C@@H](COC(=O)c2c3ccccc3cc3ccccc23)C1(F)F [(S,S)—NH2-mono, (S,S)-3-aminomethyl-2,2-difluoro-cyclopropylmethyl anthracene-9-carboxylate] | unstable | unstable | 1200 µM | weak DNA cleavage agent | 
CCOC(=O)c1c2ccccc2cc2ccccc12 [anth-OEt, Ethyl 9-anthracene carboxylate, reference compound] |  |  |  | no significant activity | 
